Data on eleven compounds can be found in patent US7388097B2, “Difluoromethyl thiazolyl carboxanilides” (Bayer CropScience AG, priority 2002, dated 2008).

Broadly, the chromatographic logP is lipophilicity estimated from chromatographic retention.

A short description of data set [1]: logP determination by HPLC on reverse-phase column (C 18), EEC Directive 79/831 Annex V.A8. It is filed as physicochemical. The following applies: reverse-phase C18 HPLC column; pH 2.3; HPLC reverse-phase C 18; 43° C.; 0.1% aqueous phosphoric acid/acetonitrile gradient. The method, then:
The determination of the logP values given in the tables and Preparation Examples above is carried out in accordance with EEC Directive 79/831 Annex V.A8 by HPLC (High Performance Liquid Chromatography) on a reverse-phase column (C 18). Temperature: 43° C.
The determination is carried out in the acidic range at pH 2.3 using the mobile phases 0.1% aqueous phosphoric acid and acetonitrile; linear gradient from 10% acetonitrile to 90% acetonitrile.
Calibration is carried out using unbranched alkan-2-ones (of 3 to 16 carbon atoms) with known logP values (determination of the logP values by the retention times using linear interpolation between two successive alkanones).

The test system of the next data set is Botrytis cinerea. As to the kind of experiment: Botrytis Test (Bean)/Protective. It is filed as in vivo. The following applies: 48 h, protective spray, application rate 100 g/ha, evaluation 2 days after inoculation, 100% = no infection, read-out: % efficacy. Here is the method: Botrytis Test (Bean)/Protective
(§1) To produce a suitable preparation of active compound, 1 part by weight of active compound is mixed with the stated amounts of solvents and emulsifier, and the concentrate is diluted with water to the desired concentration.
To test for protective activity, young plants are sprayed with the preparation of active compound at the stated application rate. After the spray coating has dried on, 2 small pieces of agar colonized by Botrytis cinerea are placed onto each leaf. The inoculated plants are placed in a dark chamber at about 20° C. and 100% relative atmospheric humidity.
2 days after the inoculation, the size of the infected areas on the leaves is evaluated. 0% means an efficacy which corresponds to that of the control, whereas an efficacy of 100% means that no infection is observed.

The test system of the next data set is Venturia inaequalis. As to the kind of experiment: Venturia Test (Apple)/Protective. The following applies: 240 h, protective spray, application rate 10 g/ha, evaluation 10 days after inoculation, 100% = no infection, read-out: % efficacy. In kind it is in vivo. Here is the method:
Venturia Test (Apple)/Protective
as §1
To test for protective activity, young plants are sprayed with the preparation of active compound at the stated application rate. After the spray coating has dried on, the plants are inoculated with an aqueous conidia suspension of the apple scab pathogen Venturia inaequalis and then remain in an incubation cabin at about 20° C. and 100% relative atmospheric humidity for 1 day.
The plants are then placed in a greenhouse at about 21° C. and a relative atmospheric humidity of about 90%.
Evaluation is carried out 10 days after the inoculation. 0% means an efficacy which corresponds to that of the control, whereas an efficacy of 100% means that no infection is observed.

Another data set concerns Septoria tritici. As to the kind of experiment: In vitro test for the ED50 determination of microorganisms. It is filed as cell-based. The following applies: 50% inhibition of fungal growth, tested at 0.1, 1, 10 and 100 ppm, 22° C., 3-5 days, photometric 620 nm. Here is the method:
(§2) In Vitro Test for the ED50 Determination of Microorganisms
(§3) A methanolic solution of the active compound to be tested, mixed with the emulsifier PS16, is pipetted into the wells of microtiter plates. After the solvent has evaporated, 200 μl of potato/dextrose medium are added to each well.
(§4) Beforehand, a suitable concentration of spores or mycelium of the fungus to be tested was added to the medium.
(§5) The resulting concentrations of active compound are 0.1, 1, 10 and 100 ppm. The resulting concentration of the emulsifier is 300 ppm.
(§6) The plates are then incubated on a shaker at a temperature of 22° C. for 3-5 days, until sufficient growth can be observed in the untreated control.
(§7) Evaluation is carried out photometrically at a wavelength of 620 nm. The dose of active compound which causes a 50% inhibition of fungal growth compared to the untreated control (ED50) is calculated from the data measured at different concentrations.

The subject of the next data set is Rhizoctonia solani. The data set is described as above. It is filed as cell-based. The following applies: 50% inhibition of fungal growth, tested at 0.1, 1, 10 and 100 ppm, 22° C., 3-5 days, photometric 620 nm. The method, then: as §2, §3, §4, §5, §6, §7

As to `Cc1nc(C(F)F)c(C(=O)Nc2ccccc2-c2ccc(F)c(Cl)c2)s1` [Example 1, N-(3′-chloro-4′-fluoro-1,1′-biphenyl-2-yl)-2-methyl-4-(difluoromethyl)-1,3-thiazole-5-carboxamide], the chromatographic logP in data set [1] was 3.28.
Take `Cc1nc(C(F)F)c(C(=O)Nc2ccccc2-c2ccc(Br)cc2)s1` [Example 2]: the chromatographic logP in data set [1] worked out at 3.47. The pest or weed control at 100 g/ha in the data set on Botrytis cinerea stood at 100%. Moreover, in the data set with Venturia inaequalis, the pest or weed control at 10 g/ha was determined as 100%.
Consider `Cc1nc(C(F)F)c(C(=O)Nc2ccccc2-c2ccc(C(F)(F)F)cc2)s1` [Example 3], for which the chromatographic logP in data set [1] was 3.52. Moreover, the pest or weed control at 100 g/ha in the data set with Botrytis cinerea was determined as 100%. For the same compound, the pest or weed control at 10 g/ha in the data set with Venturia inaequalis amounted to 100%. Also, the figures for the ED50 with Septoria tritici and in the data set on Rhizoctonia solani were 0.36 ppm and less than 0.1 ppm, respectively.
As to `Cc1nc(C(F)F)c(C(=O)Nc2ccccc2-c2cccc(Cl)c2)s1` [Example 4], the chromatographic logP in data set [1] was 3.37. In addition, the pest or weed control at 100 g/ha in the data set on Botrytis cinerea is 100%. Besides, in the data set on Venturia inaequalis, the pest or weed control at 10 g/ha was determined as 100%. Also, the values for the ED50 in the data set on Septoria tritici and in the data set on Rhizoctonia solani were 0.45 ppm and less than 0.1 ppm, respectively.
With `Cc1nc(C(F)F)c(C(=O)Nc2ccccc2-c2ccc(OC(F)(F)F)cc2)s1` [Example 5], in data set [1], the chromatographic logP came out at 3.72. For the same compound, in the data set on Botrytis cinerea, the pest or weed control at 100 g/ha amounted to 79%. The pest or weed control at 10 g/ha in the data set with Venturia inaequalis amounted to 87%. For the same compound, the ED50 in the data set with Septoria tritici is recorded as 0.25 ppm; with Rhizoctonia solani, less than 0.1 ppm.
In turn, `CSc1ccc(-c2ccccc2NC(=O)c2sc(C)nc2C(F)F)cc1` [Example 6] yielded a chromatographic logP in data set [1] of 3.39. Besides, the pest or weed control at 100 g/ha in the data set on Botrytis cinerea turned out to be 94%. In the data set with Venturia inaequalis, the pest or weed control at 10 g/ha turned out to be 99%. Besides, the ED50 in the data set on Septoria tritici was 3.51 ppm; in the data set on Rhizoctonia solani, 3.25 ppm.
The matching figures for `Cc1nc(C(F)F)c(C(=O)Nc2ccccc2-c2ccc(F)cc2)s1` [Example 7]: 3.09, 94%, 100%, 0.68 ppm and 0.48 ppm.
For `Cc1nc(C(F)F)c(C(=O)Nc2ccccc2-c2ccc(Cl)cc2Cl)s1` [Example 9], in data set [1], the chromatographic logP turned out to be 3.58. In the data set on Botrytis cinerea, the pest or weed control at 100 g/ha amounted to 95%. Besides, in the data set on Venturia inaequalis, the pest or weed control at 10 g/ha turned out to be 98%.
The corresponding values for `Cc1nc(C(F)F)c(C(=O)Nc2ccccc2-c2ccc(Cl)cc2C)s1` [Example 10] are 3.77, 100% and 100%.
The matching figures for `Cc1nc(C(F)F)c(C(=O)Nc2ccccc2-c2ccc(Cl)c(F)c2)s1` [Example 11]: 3.29, 100% and 100%.
The matching figures for `Cc1nc(C(F)F)c(C(=O)Nc2ccccc2-c2ccc(C)c(Cl)c2)s1` [Example 12]: 3.62, 100% and 100%.
